# Experimental data taken from ChEMBL document CHEMBL3763120, “Phenyl Benzenesulfonylhydrazides Exhibit Selective Indoleamine 2,3-Dioxygenase Inhibition with Potent in Vivo Pharmacodynamic Activity and Antitumor Efficacy” (J Med Chem, 2016).
# How the values were obtained:
# [1] = test system: Mus musculus; test: Decrease in ratio of kynurenine to tryptophan in C57BL/6 mouse at 50 mg/kg, po after 5 hrs by LC-MS/MS analysis; assay type: functional; settings: C57BL/6, po
# [2] = Plasma concentration in C57BL/6 mouse at 50 mg/kg, po after 2 hrs by LC-MS/MS analysis; assay type: ADME, organism-based
# [3] = Plasma concentration in C57BL/6 mouse at 50 mg/kg, po after 5 hrs by LC-MS/MS analysis; assay type: ADME, organism-based
# [4] = test system: CT26; test: Antitumor activity against mouse CT26 cells xenografted in Balb/c mouse assessed as median time to end point at 100 mg/kg, po bid for 22 days; assay type: functional
# [5] = test system: CT26; test: Antitumor activity against mouse CT26 cells xenografted in Balb/c mouse assessed as tumor growth delay at 400 mg/kg, po bid for 22 days; assay type: functional; settings: 528 h, read-out: TGI
# [6] = test system: Mus musculus; test: Toxicity in BalB/c mouse xenografted with CT26 cells assessed as change in body weight at 100 to 400 mg/kg, po bid for 22 days; assay type: organism-based; settings: in vivo, 528 h
# [7] = test system: CT26; test: Antitumor activity against mouse CT26 cells xenografted in Balb/c mouse assessed as reduction in tumor weight at 100 mg/kg bid for 18 days administered via oral gavage; assay type: functional; settings: 432 h
# [8] = target: hERG (KCNH2) (Homo sapiens, UniProt Q12809); test: Inhibition of human ERG at 10 uM
# Sequence of hERG (KCNH2) (Q12809 whole entry): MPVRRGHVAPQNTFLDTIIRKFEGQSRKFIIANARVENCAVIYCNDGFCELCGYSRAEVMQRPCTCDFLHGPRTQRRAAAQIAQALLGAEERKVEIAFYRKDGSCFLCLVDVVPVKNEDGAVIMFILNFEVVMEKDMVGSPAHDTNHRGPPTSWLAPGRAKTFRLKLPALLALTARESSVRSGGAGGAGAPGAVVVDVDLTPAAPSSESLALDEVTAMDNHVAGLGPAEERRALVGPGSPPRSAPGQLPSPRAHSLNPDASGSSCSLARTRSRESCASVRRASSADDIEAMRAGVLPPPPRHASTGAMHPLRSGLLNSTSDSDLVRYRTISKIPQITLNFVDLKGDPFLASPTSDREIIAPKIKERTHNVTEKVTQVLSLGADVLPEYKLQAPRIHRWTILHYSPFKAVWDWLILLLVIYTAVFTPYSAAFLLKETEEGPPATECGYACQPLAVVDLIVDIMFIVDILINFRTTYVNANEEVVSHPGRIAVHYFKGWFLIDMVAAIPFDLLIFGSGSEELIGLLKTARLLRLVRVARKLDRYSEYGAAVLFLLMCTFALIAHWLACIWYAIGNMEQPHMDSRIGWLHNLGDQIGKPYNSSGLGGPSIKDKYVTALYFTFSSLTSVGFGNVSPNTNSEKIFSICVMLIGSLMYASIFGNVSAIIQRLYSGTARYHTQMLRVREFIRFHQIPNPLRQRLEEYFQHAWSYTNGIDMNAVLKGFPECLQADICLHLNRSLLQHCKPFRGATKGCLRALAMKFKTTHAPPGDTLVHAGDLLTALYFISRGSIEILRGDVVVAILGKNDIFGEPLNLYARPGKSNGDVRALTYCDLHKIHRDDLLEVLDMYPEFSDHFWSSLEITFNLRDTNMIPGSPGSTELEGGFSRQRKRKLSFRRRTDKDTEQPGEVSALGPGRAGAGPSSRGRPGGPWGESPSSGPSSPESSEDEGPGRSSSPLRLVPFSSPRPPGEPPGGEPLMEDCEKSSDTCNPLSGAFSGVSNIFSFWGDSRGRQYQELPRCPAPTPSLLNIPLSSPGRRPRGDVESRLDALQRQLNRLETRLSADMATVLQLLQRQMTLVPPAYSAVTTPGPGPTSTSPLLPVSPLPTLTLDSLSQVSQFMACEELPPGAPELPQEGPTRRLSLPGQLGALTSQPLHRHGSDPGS
# [9] = organism: Homo sapiens; test: Inhibition of Phorbol ester receptor (unknown origin) at 10 uM
# [10] = target: Kappa-type opioid receptor (Homo sapiens) (UniProt P41145); test: Inhibition of Opiate kappa receptor (unknown origin) at 10 uM
# [11] = target: Delta-type opioid receptor (Homo sapiens) (UniProt P41143); test: Inhibition of Opiate delta1 receptor (unknown origin) at 10 uM
# Sequence of Delta-type opioid receptor (Homo sapiens) (P41143 whole entry): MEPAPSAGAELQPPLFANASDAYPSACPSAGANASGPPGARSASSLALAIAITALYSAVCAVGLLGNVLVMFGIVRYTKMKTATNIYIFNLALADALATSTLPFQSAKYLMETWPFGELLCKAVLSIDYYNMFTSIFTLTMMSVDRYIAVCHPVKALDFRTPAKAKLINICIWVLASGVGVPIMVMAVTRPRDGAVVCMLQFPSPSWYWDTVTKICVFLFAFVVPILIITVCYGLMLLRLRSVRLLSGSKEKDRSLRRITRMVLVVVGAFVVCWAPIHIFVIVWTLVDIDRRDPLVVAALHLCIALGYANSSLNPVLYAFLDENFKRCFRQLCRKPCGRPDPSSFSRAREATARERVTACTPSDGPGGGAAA
# [12] = target: Acetylcholine receptor subunit alpha (Homo sapiens) (UniProt P02708); test: Inhibition of Nicotinic acetylcholine alpha1 bungarotoxin binding site (unknown origin) at 10 uM
# [13] = target: Neuropeptide Y receptor type 2 (Homo sapiens) (UniProt P49146); test: Inhibition of Neuropeptide Y2 receptor (unknown origin) at 10 uM
# [14] = target: Neuropeptide Y receptor type 1 (Homo sapiens) (UniProt P25929); test: Inhibition of Neuropeptide Y1 receptor (unknown origin) at 10 uM
# Sequence of Neuropeptide Y receptor type 1 (Homo sapiens) (P25929 whole entry): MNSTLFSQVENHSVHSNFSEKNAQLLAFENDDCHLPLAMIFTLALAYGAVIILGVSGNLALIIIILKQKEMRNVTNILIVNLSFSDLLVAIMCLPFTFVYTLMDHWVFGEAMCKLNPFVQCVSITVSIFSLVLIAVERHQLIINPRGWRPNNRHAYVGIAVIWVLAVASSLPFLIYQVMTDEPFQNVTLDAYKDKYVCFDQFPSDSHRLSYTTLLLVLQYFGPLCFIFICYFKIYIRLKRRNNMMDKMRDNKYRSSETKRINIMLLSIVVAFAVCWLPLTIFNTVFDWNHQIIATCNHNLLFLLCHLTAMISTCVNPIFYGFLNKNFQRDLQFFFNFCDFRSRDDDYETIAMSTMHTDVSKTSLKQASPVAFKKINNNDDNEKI
# [15] = target: Muscarinic acetylcholine receptor M1 (Homo sapiens) (UniProt P11229); test: Inhibition of Muscarinic M1 receptor (unknown origin) at 10 uM
# [16] = target: Cysteinyl leukotriene receptor 1 (Homo sapiens) (UniProt Q9Y271); test: Inhibition of CysLT1 receptor (unknown origin) at 10 uM
# [17] = target: Interleukin-1 receptor type 1 (Homo sapiens) (UniProt P14778); test: Inhibition of IL-1 receptor (unknown origin) at 10 uM
# Sequence of Interleukin-1 receptor type 1 (Homo sapiens) (P14778 whole entry): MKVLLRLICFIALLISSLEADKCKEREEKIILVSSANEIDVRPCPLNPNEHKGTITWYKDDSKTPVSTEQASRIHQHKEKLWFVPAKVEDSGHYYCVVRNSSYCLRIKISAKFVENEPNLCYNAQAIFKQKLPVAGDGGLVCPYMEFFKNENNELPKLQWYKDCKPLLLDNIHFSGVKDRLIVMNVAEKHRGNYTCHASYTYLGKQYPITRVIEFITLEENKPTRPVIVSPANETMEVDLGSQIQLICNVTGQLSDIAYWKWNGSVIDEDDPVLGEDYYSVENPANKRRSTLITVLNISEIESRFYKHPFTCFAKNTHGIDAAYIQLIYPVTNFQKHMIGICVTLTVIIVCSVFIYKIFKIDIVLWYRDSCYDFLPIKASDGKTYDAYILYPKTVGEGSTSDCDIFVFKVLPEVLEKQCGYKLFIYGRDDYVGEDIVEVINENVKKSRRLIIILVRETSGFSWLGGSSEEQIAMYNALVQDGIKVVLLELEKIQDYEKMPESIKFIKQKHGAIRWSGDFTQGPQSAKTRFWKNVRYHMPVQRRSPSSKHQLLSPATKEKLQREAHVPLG
# [18] = organism: Homo sapiens; test: Inhibition of I2 imidazoline binding site (unknown origin) at 10 uM
# [19] = target: Histamine H3 receptor (Homo sapiens) (UniProt Q9Y5N1); test: Inhibition of Histamine H3 receptor (unknown origin) at 10 uM
# [20] = target: T1, Glutamate [NMDA] receptor (Homo sapiens) (UniProt Q05586+Q12879+Q13224+O15399+O60391+Q14957+Q8TCU5); test: Inhibition of NMDA receptor phencyclidine binding site (unknown origin) at 10 uM
# [21] = target: T1, Glutamate [NMDA] receptor (Homo sapiens); test: Inhibition of NMDA receptor agonist binding site (unknown origin) at 10 uM
# [22] = target: Estrogen receptor (Homo sapiens) (UniProt P03372); test: Inhibition of ERalpha (unknown origin) at 10 uM
# Sequence of Estrogen receptor (Homo sapiens) (P03372 whole entry): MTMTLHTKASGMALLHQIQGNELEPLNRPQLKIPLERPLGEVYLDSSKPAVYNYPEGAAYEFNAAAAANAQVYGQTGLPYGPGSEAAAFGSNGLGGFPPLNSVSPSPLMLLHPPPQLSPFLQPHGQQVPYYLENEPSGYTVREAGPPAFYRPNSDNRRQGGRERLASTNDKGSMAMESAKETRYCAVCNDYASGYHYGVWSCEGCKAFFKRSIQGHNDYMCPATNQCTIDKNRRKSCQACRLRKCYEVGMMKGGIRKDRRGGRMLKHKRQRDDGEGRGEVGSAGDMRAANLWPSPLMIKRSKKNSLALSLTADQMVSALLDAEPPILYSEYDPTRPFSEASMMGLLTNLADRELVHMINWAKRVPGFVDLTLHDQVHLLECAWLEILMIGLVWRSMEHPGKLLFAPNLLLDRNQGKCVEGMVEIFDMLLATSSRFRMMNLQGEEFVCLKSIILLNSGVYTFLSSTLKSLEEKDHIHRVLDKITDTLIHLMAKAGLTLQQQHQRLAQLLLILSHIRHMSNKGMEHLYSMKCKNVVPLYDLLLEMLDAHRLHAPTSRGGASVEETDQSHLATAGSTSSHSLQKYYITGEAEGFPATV
# [23] = target: Epidermal growth factor receptor (Homo sapiens) (UniProt P00533); test: Inhibition of EGF receptor (unknown origin) at 10 uM
# [24] = target: D(2) dopamine receptor (Homo sapiens) (UniProt P14416); test: Inhibition of Dopamine D2S receptor (unknown origin) at 10 uM
# [25] = target: D(1A) dopamine receptor (Homo sapiens) (UniProt P21728); test: Inhibition of Dopamine D1 receptor (unknown origin) at 10 uM
# [26] = target: Cannabinoid receptor 1 (Homo sapiens) (UniProt P21554); test: Inhibition of CB1 receptor (unknown origin) at 10 uM
# [27] = organism: Homo sapiens; test: Inhibition of N-type calcium channel (unknown origin) at 10 uM
# [28] = target: L-type calcium channel, benzothiazepine binding site (Homo sapiens, UniProt O60840+Q01668+Q13698+Q13936); test: Inhibition of L-type calcium channel benzothiazepine binding site (unknown origin) at 10 uM; assay type: protein assay
# [29] = target: Beta-1 adrenergic receptor (Homo sapiens) (UniProt P08588); test: Inhibition of Adrenergic beta1 receptor (unknown origin) at 10 uM
# [30] = target: Alpha-2A adrenergic receptor (Homo sapiens) (UniProt P08913); test: Inhibition of Adrenergic alpha2A receptor (unknown origin) at 10 uM
# Sequence of Alpha-2A adrenergic receptor (Homo sapiens) (P08913 whole entry): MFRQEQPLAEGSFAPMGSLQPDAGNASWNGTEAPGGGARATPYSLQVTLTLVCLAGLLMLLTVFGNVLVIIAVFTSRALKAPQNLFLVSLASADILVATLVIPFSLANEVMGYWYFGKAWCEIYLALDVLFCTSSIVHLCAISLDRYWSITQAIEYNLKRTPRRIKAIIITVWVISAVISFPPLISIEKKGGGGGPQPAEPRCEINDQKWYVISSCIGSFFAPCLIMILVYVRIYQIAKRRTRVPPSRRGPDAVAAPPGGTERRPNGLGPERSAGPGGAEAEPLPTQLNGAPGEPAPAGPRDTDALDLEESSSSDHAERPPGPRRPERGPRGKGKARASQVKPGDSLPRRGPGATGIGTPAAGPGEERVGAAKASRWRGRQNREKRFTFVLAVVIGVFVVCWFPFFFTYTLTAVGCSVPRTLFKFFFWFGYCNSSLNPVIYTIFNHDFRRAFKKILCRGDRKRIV
# [31] = target: Alpha-1D adrenergic receptor (Homo sapiens) (UniProt P25100); test: Inhibition of Adrenergic alpha1D receptor (unknown origin) at 10 uM
# Sequence of Alpha-1D adrenergic receptor (Homo sapiens) (P25100 whole entry): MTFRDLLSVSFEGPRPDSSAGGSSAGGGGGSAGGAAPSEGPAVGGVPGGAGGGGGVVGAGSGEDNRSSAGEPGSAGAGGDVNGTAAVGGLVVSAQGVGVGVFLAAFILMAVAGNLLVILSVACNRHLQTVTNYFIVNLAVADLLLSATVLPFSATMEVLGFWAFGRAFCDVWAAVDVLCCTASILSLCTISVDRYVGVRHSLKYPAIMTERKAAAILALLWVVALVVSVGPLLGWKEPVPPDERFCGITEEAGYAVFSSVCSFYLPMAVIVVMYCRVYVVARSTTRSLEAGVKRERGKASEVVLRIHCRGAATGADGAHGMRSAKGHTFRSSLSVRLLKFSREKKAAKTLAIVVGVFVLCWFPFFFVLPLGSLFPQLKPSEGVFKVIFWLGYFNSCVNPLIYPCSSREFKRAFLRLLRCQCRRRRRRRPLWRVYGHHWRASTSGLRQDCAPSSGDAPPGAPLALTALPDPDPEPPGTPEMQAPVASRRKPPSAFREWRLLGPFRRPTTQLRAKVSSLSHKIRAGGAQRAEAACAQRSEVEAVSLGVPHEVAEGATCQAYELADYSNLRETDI
# [32] = target: Alpha-1B adrenergic receptor (Homo sapiens) (UniProt P35368); test: Inhibition of Adrenergic alpha1B receptor (unknown origin) at 10 uM
# [33] = target: Alpha-1A adrenergic receptor (Homo sapiens) (UniProt P35348); test: Inhibition of Adrenergic alpha1A receptor (unknown origin) at 10 uM
# Sequence of Alpha-1A adrenergic receptor (Homo sapiens) (P35348 whole entry): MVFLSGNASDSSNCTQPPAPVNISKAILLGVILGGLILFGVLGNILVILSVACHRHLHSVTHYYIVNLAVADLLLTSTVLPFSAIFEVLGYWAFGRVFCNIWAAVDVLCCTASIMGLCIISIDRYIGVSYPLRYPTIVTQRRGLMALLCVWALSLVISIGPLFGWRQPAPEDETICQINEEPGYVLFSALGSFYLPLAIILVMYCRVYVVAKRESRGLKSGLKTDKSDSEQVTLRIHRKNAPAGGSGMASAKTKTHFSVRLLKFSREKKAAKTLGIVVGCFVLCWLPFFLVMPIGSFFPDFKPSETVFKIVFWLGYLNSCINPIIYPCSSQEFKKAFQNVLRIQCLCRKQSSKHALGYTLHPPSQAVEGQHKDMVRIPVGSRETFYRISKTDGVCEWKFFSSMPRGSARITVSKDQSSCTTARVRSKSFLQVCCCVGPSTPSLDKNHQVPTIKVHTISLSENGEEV
# [34] = target: Adenosine receptor A1 (Homo sapiens) (UniProt P30542); test: Inhibition of Adenosine A1 receptor (unknown origin) at 10 uM
# Sequence of Adenosine receptor A1 (Homo sapiens) (P30542 whole entry): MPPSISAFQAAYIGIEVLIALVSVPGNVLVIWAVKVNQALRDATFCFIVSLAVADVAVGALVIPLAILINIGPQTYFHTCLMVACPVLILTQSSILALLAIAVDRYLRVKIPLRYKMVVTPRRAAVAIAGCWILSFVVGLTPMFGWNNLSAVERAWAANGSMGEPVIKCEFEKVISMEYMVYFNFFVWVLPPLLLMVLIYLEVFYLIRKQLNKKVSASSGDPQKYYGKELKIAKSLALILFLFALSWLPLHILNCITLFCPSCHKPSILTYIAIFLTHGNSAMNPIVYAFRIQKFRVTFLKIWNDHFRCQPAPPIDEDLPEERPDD
# [35] = organism: Homo sapiens; test: Inhibition of Purinergic P2Y receptor (unknown origin) at 10 uM
# [36] = organism: Homo sapiens; test: Inhibition of rolipram binding site (unknown origin) at 10 uM
# [37] = target: 5-hydroxytryptamine receptor 3A (Homo sapiens) (UniProt P46098); test: Inhibition of 5HT3 receptor (unknown origin) at 10 uM
# [38] = organism: Homo sapiens; test: Inhibition of Sodium channel site 2 (unknown origin) at 10 uM
# [39] = target: Sodium-dependent dopamine transporter (Homo sapiens) (UniProt Q01959); test: Inhibition of DAT (unknown origin) at 10 uM
# [40] = Half life in Sprague-Dawley rat plasma at 10 mg/kg, po by LC-MS/MS analysis; assay type: ADME, organism-based
# [41] = AUC (0 to infinity) in Sprague-Dawley rat plasma at 10 mg/kg, po by LC-MS/MS analysis; assay type: ADME, organism-based; design: dose 10 mg/kg, route oral, time infinity
# [42] = Oral bioavailability in Sprague-Dawley rat plasma at 10 mg/kg by LC-MS/MS analysis; assay type: ADME, organism-based
# [43] = organism: Homo sapiens; test: Inhibition of Purinergic P2X receptor (unknown origin) at 10 uM
# [44] = target: Indoleamine 2,3-dioxygenase 1 (Homo sapiens, UniProt P14902); test: Inhibition of Indoleamine 2,3-dioxygenase in human HeLa cells in presence of L-tryptophan as substrate after 24 hrs in presence of L-tryptophan; assay type: cell-based
# [45] = Clearance in Sprague-Dawley rat plasma at 2 mg/kg, iv by LC-MS/MS analysis; assay type: ADME, organism-based
structure (smiles),measurement,setting,value
O=C1Cc2cc(S(=O)(=O)NNc3ccc(Br)cc3)ccc2N1,inhibition in vivo at 50 mg/kg,[1],42%
same,concentration at 2 h,[2],4 µM
same,concentration at 5 h,[3],2.2 µM
same,Time,[4],4 days
same,inhibition in vivo at 400 mg/kg,[5],73%
same,Activity,[6],Non-toxic
same,inhibition in vivo at 100 mg/kg,[7],64%
same,inhibition at 10 µM,[8],< 50%
same,inhibition,[9],< 50%
same,inhibition,[10],< 50%
same,inhibition,[11],< 50%
same,inhibition,[12],< 50%
same,inhibition,[13],< 50%
same,inhibition,[14],< 50%
same,inhibition,[15],< 50%
same,inhibition,[16],< 50%
same,inhibition,[17],< 50%
same,inhibition,[18],< 50%
same,inhibition,[19],< 50%
same,inhibition,[20],< 50%
same,inhibition,[21],< 50%
same,inhibition,[22],< 50%
same,inhibition,[23],< 50%
same,inhibition,[24],< 50%
same,inhibition,[25],< 50%
same,inhibition,[26],< 50%
same,inhibition,[27],< 50%
same,inhibition at 10 µM,[28],< 50%
same,inhibition,[29],< 50%
same,inhibition,[30],< 50%
same,inhibition,[31],< 50%
same,inhibition,[32],< 50%
same,inhibition,[33],< 50%
same,inhibition,[34],< 50%
same,inhibition,[35],< 50%
same,inhibition,[36],< 50%
same,inhibition,[37],< 50%
same,inhibition,[38],< 50%
same,inhibition,[39],< 50%
same,half-life,[40],2.3 h
same,AUC(0-inf),[41],7.21 µg·h/mL
same,bioavailability,[42],59%
same,inhibition,[43],< 50%
same,EC50,[44],0.0676 µM
same,clearance,[45],0.954 L/h/kg
